Tested on: Pseudomonas infections caused by known producers of GAT I
Assay: Mouse protection test, Pseudomonas infection
Format: in vivo, CF1 (Carworth Farms) mice
Details: CF1 mice 18 to 20 g
Experimental: B. Mouse protection tests were performed in the usual manner using CF1 (Carworth Farms) mice weighing 18 to 20 g. each. […] Thus, the compounds of this invention may be used to control or eradicate susceptible bacterial strains in warm blooded animals, particularly in laboratory animals.

CN[C@@H]1[C@@H](O)[C@@H](O[C@@H]2[C@@H](O)[C@H](O[C@H]3OC(CN)=CC[C@H]3N)[C@@H](N)C[C@H]2N)OC[C@]1(C)O [sisomicin]
protection (mouse protection test, PD50): slight protection

Source: patent publication US4169141A, “1-Peptidyl derivatives of di-O-aminoglycosyl-1,3-diaminocyclitol antibacterial agents” (priority 1978, dated 1979)
